This note sets out measurements from ChEMBL document CHEMBL4699434, “Fenretinide binding to the lysosomal protein saposin D alters ceramide solubilization and hydrolysis” (RSC Med Chem, 2020).

Assay [1] has as its target T1, Prosaposin (Homo sapiens, UniProt P07602).
T1 sequence (P07602 whole entry): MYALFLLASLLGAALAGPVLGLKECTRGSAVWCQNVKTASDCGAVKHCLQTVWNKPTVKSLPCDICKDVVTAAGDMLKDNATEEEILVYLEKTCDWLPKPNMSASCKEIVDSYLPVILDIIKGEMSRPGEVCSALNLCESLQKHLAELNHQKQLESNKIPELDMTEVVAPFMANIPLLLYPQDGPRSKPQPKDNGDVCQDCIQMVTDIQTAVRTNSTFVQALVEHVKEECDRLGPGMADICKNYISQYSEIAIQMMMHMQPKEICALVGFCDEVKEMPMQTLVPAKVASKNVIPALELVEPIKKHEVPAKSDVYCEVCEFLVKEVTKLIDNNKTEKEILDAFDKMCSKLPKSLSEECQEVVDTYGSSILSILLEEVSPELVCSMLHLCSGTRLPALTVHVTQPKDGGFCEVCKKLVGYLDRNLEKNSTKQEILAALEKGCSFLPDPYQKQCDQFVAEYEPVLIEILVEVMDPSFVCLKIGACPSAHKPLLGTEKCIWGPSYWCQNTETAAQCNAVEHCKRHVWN
Description: Binding affinity to human saposin D (1 to 81 residues) expressed in Escherichia coli at 25 degree C by fluorescence quenching spectroscopy.

Assay [2] addresses T2, Prosaposin (Homo sapiens) (UniProt P07602).
T2 sequence (whole entry): T1 sequence (P07602 whole entry)
Description: Binding affinity to human saposin D (1 to 81 residues) expressed in Escherichia coli assessed as association constant at equilibrium at 25 degree C by fluorescence quenching spectroscopy.

Assay [3] addresses T2, Prosaposin (Homo sapiens). Description: Binding affinity to human saposin D (1 to 81 residues) expressed in Escherichia coli assessed as decrease in BODIPY-TR labeled ceramide solubilization in sodium phosphate buffer measured after 30 mins by fluorescence assay.
Assay [4] deals with T2, Prosaposin (Homo sapiens). Briefly: Binding affinity to human saposin D (1 to 81 residues) expressed in Escherichia coli complexed with CerOH assessed as decrease in ceramide hydrolysis using ceramide as counter-substrate measured after 24 hrs in presence of acid ceramidase by fluorescence quenching spectroscopy.
In assay [5] the target is T2, Prosaposin (Homo sapiens). Description: Binding affinity to human saposin D (1 to 81 residues) expressed in Escherichia coli complexed with CerPO4 assessed as decrease in ceramide hydrolysis using ceramide as counter-substrate preincubated the protein-ceramide complex for 30 mins measured after 24 hrs in presence of acid ceramidase by HPLC analysis.
Assay [6] addresses T1, Prosaposin. Description: Binding affinity to human saposin D (1 to 81 residues) expressed in Escherichia coli at 25 degree C by electronic absorption spectroscopy.
In assay [7] the target is T2, Prosaposin (Homo sapiens). Description: Binding affinity to human saposin D (1 to 81 residues) expressed in Escherichia coli assessed as inhibition of ceramide hydrolysis preincubated for 30 mins followed by ceramide addition measured after 72 hrs by HPLC analysis.
The target in assay [8] is T3, Acid ceramidase (Homo sapiens) (UniProt Q13510).
T3 sequence (whole entry): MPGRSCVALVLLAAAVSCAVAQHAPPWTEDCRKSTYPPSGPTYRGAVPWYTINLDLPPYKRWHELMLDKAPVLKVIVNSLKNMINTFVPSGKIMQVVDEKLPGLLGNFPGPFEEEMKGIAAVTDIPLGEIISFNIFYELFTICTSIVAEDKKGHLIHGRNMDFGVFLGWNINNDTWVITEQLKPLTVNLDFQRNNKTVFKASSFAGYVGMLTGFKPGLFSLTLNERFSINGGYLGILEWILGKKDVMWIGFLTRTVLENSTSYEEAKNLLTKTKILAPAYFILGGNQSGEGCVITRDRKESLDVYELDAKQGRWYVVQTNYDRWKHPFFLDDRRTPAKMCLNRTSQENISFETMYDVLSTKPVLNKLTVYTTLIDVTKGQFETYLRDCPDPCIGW
Briefly: Inhibition of acid ceramidase (unknown origin) assessed as inhibition of ceramide hydrolysis preincubated for 30 mins followed by ceramide addition measured after 72 hrs by HPLC analysis.

The target in assay [9] is T2, Prosaposin (Homo sapiens). Briefly: Binding affinity to human saposin D (1 to 81 residues) expressed in Escherichia coli assessed as association constant at equilibrium at 25 degree C by electronic absorption spectroscopy.

Structures are written as SMILES. pKd: −log10 of the molar value. Active and inactive are the calls of the source. No cut-off for these calls is given here.

What is called pKd is −log10 of the Kd, conventionally taken in molar units. Turning to `CC1=C(/C=C/C(C)=C/C=C/C(C)=C/C(=O)Nc2ccc(O)cc2)C(C)(C)CCC1` [FENRETINIDE], the pKd at Prosaposin [1] and on Prosaposin [6] was 5.16 each time. Also, the Ka in assay [2] and in assay [9] was 1.45 10^5/M each time. For the same compound, the result in assay [3] was inactive. The result in assay [4] and in [5] was Active. The inhibition result in assay [7] and in assay [8] was “Active” throughout.
